According to patent US6914045B2, “Glycopeptide antibiotics” (Wyeth Holdings Corporation, priority 2001, dated 2005):
≈ marks a conversion by molar mass, not a printed value.

Columns and labels:
Test in all cases: in vitro antibacterial evaluation, MIC by broth dilution
Assay type in all cases: cell-based
Escherichia coli = details: 18 hours at 35° C.
Enterococcus sp. = details: broth dilution, 18 hours at 35° C.
Procedure, shortened: (§1)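 Step 1: dilute antibiotic across 64-0.06 μg/mL in Muller-Hinton II […]. Step 2: inoculate at 5×10^5 CFU/mL.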

Staphylococcus sp. = details: broth dilution, 18 hours at 35° C.
Procedure, shortened: as §1

Streptococcus sp. = details: broth dilution, 18 hours at 35° C.
Procedure, shortened: as §1

Cc1ccc(COCC2OC(OC3C(CO)OC(Oc4ccc(CC5NC(=O)C(C(C)c6ccccc6)NC(=O)CNC(=O)C(CO)NC(=O)C(C(O)C6CNC(=N)N6C6OC(CO)C(O)C(O)C6O)NC(=O)C(C(O)C6CNC(=N)N6)NC5=O)cc4)C(O)C3O)C(O)C(O)C2O)cc1 (stereo not shown) [Example 234]
MIC Escherichia coli (ATCC 25922) (Escherichia coli): 64 µg/mL (≈ 45.7 µM) | MIC Escherichia coli (GC 4559) (Escherichia coli): 64 µg/mL (≈ 45.7 µM) | MIC Escherichia coli (GC 4560) (Escherichia coli): 1 µg/mL (≈ 0.715 µM) | MIC Enterococcus avium (GC 4558) (Enterococcus sp.): 8 µg/mL (≈ 5.72 µM) | MIC Enterococcus faecalis (ATCC 29212) (Enterococcus sp.): 8 µg/mL (≈ 5.72 µM) | MIC Enterococcus faecalis (GC 2242) (Enterococcus sp.): 4 µg/mL (≈ 2.86 µM) | MIC Enterococcus faecalis (GC 2691) (Enterococcus sp.): 8 µg/mL (≈ 5.72 µM) | MIC Enterococcus faecalis (GC 3059) (Enterococcus sp.): 8 µg/mL (≈ 5.72 µM) | MIC Enterococcus faecalis (GC 4552) (Enterococcus sp.): 8 µg/mL (≈ 5.72 µM) | MIC Enterococcus faecalis (GC 4553) (Enterococcus sp.): 8 µg/mL (≈ 5.72 µM) | MIC Enterococcus faecalis (GC 4554) (Enterococcus sp.): 8 µg/mL (≈ 5.72 µM) | MIC Enterococcus faecalis (GC 6189) (Enterococcus sp.): 8 µg/mL (≈ 5.72 µM) | MIC Enterococcus faecium (GC 2243) (Enterococcus sp.): 8 µg/mL (≈ 5.72 µM) | MIC Enterococcus faecium (GC 4556) (Enterococcus sp.): 8 µg/mL (≈ 5.72 µM) | MIC Enterococcus faecium (GC 4557) (Enterococcus sp.): 2 µg/mL (≈ 1.43 µM) | MIC Enterococcus faecalis (ATCC 29212) (Enterococcus sp.; strain ATCC 29212): 8 µg/mL (≈ 5.72 µM) | MIC Enterococcus faecium (GC 2243) (Enterococcus sp.; strain GC 2243): 8 µg/mL (≈ 5.72 µM) | MIC Enterococcus faecalis (GC 4552) (Enterococcus sp.; strain GC 4552): 8 µg/mL (≈ 5.72 µM) | MIC Enterococcus faecalis (GC 4553) (Enterococcus sp.; strain GC 4553): 8 µg/mL (≈ 5.72 µM) | MIC Enterococcus faecalis (GC 4554) (Enterococcus sp.; strain GC 4554): 8 µg/mL (≈ 5.72 µM) | MIC Enterococcus faecium (GC 4556) (Enterococcus sp.; strain GC 4556): 8 µg/mL (≈ 5.72 µM) | MIC Enterococcus faecium (GC 4557) (Enterococcus sp.; strain GC 4557): 2 µg/mL (≈ 1.43 µM) | MIC Enterococcus avium (GC 4558) (Enterococcus sp.; strain GC 4558): 8 µg/mL (≈ 5.72 µM) | MIC Enterococcus faecalis (GC 6189) (Enterococcus sp.; strain GC 6189): 8 µg/mL (≈ 5.72 µM) | MIC Enterococcus faecalis (GC 2242) (Enterococcus sp.; inoculum 5×10^5 CFU/mL, strain GC 2242): 4 µg/mL (≈ 2.86 µM) | MIC Enterococcus faecalis (GC 2691) (Enterococcus sp.; inoculum 5×10^5 CFU/mL, strain GC 2691): 8 µg/mL (≈ 5.72 µM) | MIC Enterococcus faecalis (GC 3059) (Enterococcus sp.; inoculum 5×10^5 CFU/mL, strain GC 3059): 8 µg/mL (≈ 5.72 µM) | MIC Coagulase Negative Staphylococcus (GC 4547) (Staphylococcus sp.): 1 µg/mL (≈ 0.715 µM) | MIC Coagulase Negative Staphylococcus (GC 4548) (Staphylococcus sp.): 1 µg/mL (≈ 0.715 µM) | MIC Coagulase Negative Staphylococcus (GC 4549) (Staphylococcus sp.): 0.5 µg/mL (≈ 0.357 µM) | MIC Coagulase Negative Staphylococcus (GC 4551) (Staphylococcus sp.): 2 µg/mL (≈ 1.43 µM) | MIC Coagulase Negative Staphylococcus (GC 6257) (Staphylococcus sp.): 1 µg/mL (≈ 0.715 µM) | MIC Staphylococcus aureus (ATCC 29213) (Staphylococcus sp.): 2 µg/mL (≈ 1.43 µM) | MIC Staphylococcus aureus (GC 1131) (Staphylococcus sp.): 2 µg/mL (≈ 1.43 µM) | MIC Staphylococcus aureus (GC 3051) (Staphylococcus sp.): 2 µg/mL (≈ 1.43 µM) | MIC Staphylococcus aureus (GC 3053) (Staphylococcus sp.): 2 µg/mL (≈ 1.43 µM) | MIC Staphylococcus aureus (GC 4541) (Staphylococcus sp.): 2 µg/mL (≈ 1.43 µM) | MIC Staphylococcus aureus (GC 4542) (Staphylococcus sp.): 2 µg/mL (≈ 1.43 µM) | MIC Staphylococcus aureus (GC 4544) (Staphylococcus sp.): 2 µg/mL (≈ 1.43 µM) | MIC Staphylococcus aureus (GC 4545) (Staphylococcus sp.): 2 µg/mL (≈ 1.43 µM) | MIC Staphylococcus aureus-SMITH (GC 4543) (Staphylococcus sp.): 2 µg/mL (≈ 1.43 µM) | MIC Staphylococcus haemolyticus (GC 4546) (Staphylococcus sp.): 1 µg/mL (≈ 0.715 µM) | MIC Staphylococcus aureus (ATCC 29213) (Staphylococcus sp.; strain ATCC 29213): 2 µg/mL (≈ 1.43 µM) | MIC Staphylococcus aureus (GC 1131) (Staphylococcus sp.; strain GC 1131): 2 µg/mL (≈ 1.43 µM) | MIC Staphylococcus aureus (GC 3051) (Staphylococcus sp.; strain GC 3051): 2 µg/mL (≈ 1.43 µM) | MIC Staphylococcus aureus (GC 3053) (Staphylococcus sp.; strain GC 3053): 2 µg/mL (≈ 1.43 µM) | MIC Staphylococcus aureus (GC 4541) (Staphylococcus sp.; strain GC 4541): 2 µg/mL (≈ 1.43 µM) | MIC Staphylococcus aureus (GC 4542) (Staphylococcus sp.; strain GC 4542): 2 µg/mL (≈ 1.43 µM) | MIC Staphylococcus aureus-SMITH (GC 4543) (Staphylococcus sp.; strain GC 4543): 2 µg/mL (≈ 1.43 µM) | MIC Staphylococcus aureus (GC 4544) (Staphylococcus sp.; strain GC 4544): 2 µg/mL (≈ 1.43 µM) | MIC Staphylococcus aureus (GC 4545) (Staphylococcus sp.; strain GC 4545): 2 µg/mL (≈ 1.43 µM) | MIC Staphylococcus haemolyticus (GC 4546) (Staphylococcus sp.; strain GC 4546): 1 µg/mL (≈ 0.715 µM) | MIC Coagulase Negative Staphylococcus (GC 4547) (Staphylococcus sp.; strain GC 4547): 1 µg/mL (≈ 0.715 µM) | MIC Coagulase Negative Staphylococcus (GC 4548) (Staphylococcus sp.; strain GC 4548): 1 µg/mL (≈ 0.715 µM) | MIC Coagulase Negative Staphylococcus (GC 4549) (Staphylococcus sp.; strain GC 4549): 0.5 µg/mL (≈ 0.357 µM) | MIC Coagulase Negative Staphylococcus (GC 4551) (Staphylococcus sp.; strain GC 4551): 2 µg/mL (≈ 1.43 µM) | MIC Coagulase Negative Staphylococcus (GC 6257) (Staphylococcus sp.; strain GC 6257): 1 µg/mL (≈ 0.715 µM) | MIC Streptococcus agalactiae (GC 4564) (Streptococcus sp.): 0.5 µg/mL (≈ 0.357 µM) | MIC Streptococcus pneumoniae (ATCC 6301) (Streptococcus sp.): 0.25 µg/mL (≈ 0.179 µM) | MIC Streptococcus pneumoniae (GC 1894) (Streptococcus sp.): 0.12 µg/mL (≈ 0.0857 µM) | MIC Streptococcus pneumoniae (GC 4565) (Streptococcus sp.): 0.25 µg/mL (≈ 0.179 µM) | MIC Streptococcus pyogenes (GC 4563) (Streptococcus sp.): 0.5 µg/mL (≈ 0.357 µM) | MIC Streptococcus pneumoniae (ATCC 6301) (Streptococcus sp.; inoculum 5×10^5 CFU/mL, strain ATCC 6301): 0.25 µg/mL (≈ 0.179 µM) | MIC Streptococcus pneumoniae (GC 1894) (Streptococcus sp.; inoculum 5×10^5 CFU/mL, strain GC 1894): 0.12 µg/mL (≈ 0.0857 µM) | MIC Streptococcus pyogenes (GC 4563) (Streptococcus sp.; inoculum 5×10^5 CFU/mL, strain GC 4563): 0.5 µg/mL (≈ 0.357 µM) | MIC Streptococcus agalactiae (GC 4564) (Streptococcus sp.; inoculum 5×10^5 CFU/mL, strain GC 4564): 0.5 µg/mL (≈ 0.357 µM) | MIC Streptococcus pneumoniae (GC 4565) (Streptococcus sp.; inoculum 5×10^5 CFU/mL, strain GC 4565): 0.25 µg/mL (≈ 0.179 µM)
